We go through two compounds from patent US20090203753A1, “7-(2-amino-1-hydroxy-ethyl)-4-hydroxybenzothiazol-2(3H)-one-derivatives as beta2 adrenoreceptor agonists” (AstraZeneca AB, priority 2005, published 2009).

Assay [1] has as its target T1, recombinant human α1D receptor (Homo sapiens, UniProt P25100).
T1 construct: expressed in transfected cells; host or cells: HEK293
T1 sequence (P25100 1-572): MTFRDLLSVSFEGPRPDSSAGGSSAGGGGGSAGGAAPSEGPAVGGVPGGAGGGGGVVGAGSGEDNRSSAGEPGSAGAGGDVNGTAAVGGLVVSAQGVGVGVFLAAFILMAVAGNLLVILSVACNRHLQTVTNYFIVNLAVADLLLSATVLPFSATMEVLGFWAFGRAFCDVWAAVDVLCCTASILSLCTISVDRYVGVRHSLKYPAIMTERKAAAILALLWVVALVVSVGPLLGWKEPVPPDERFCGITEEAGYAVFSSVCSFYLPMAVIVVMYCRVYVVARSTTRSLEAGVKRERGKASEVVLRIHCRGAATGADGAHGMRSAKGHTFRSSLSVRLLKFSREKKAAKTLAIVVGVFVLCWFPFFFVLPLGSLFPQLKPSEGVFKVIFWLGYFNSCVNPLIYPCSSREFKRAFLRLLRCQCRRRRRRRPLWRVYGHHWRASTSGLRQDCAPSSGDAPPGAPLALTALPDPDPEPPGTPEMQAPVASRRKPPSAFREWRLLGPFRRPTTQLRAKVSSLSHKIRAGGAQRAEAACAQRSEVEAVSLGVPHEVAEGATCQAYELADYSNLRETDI
In words: Adrenergic α1D selectivity assay, [3H]-prazosin binding to HEK293 membranes. Conditions: read-out: α1 bind pIC50 (converted). The procedure:
Membranes were prepared from human embryonic kidney 293 (HEK293) cells expressing recombinant human α1D receptor. These were diluted in Assay Buffer (50 mM HEPES, 1 mM EDTA, 0.1% gelatin, pH 7.4) to provide a final concentration of membranes that gave a clear window between maximum and minimum specific binding.
(§1) Assays were performed in U-bottomed 96-well polypropylene plates. 10 μL [^3H]-prazosin (0.3 nM final concentration) and 10 μL of test compound (10× final concentration) were added to each test well. For each assay plate 8 replicates were obtained for [^3H]-prazosin binding in the presence of 10 μL vehicle (10% (v/v) DMSO in Assay Buffer; defining maximum binding) or 10 μL BMY7378 (10 μM final concentration; defining non-specific binding (NSB)). Membranes were then added to achieve a final volume of 100 μL. The plates were incubated for 2 hours at room temperature and then filtered onto PEI coated GF/B filter plates, pre-soaked for 1 hour in Assay Buffer, using a 96-well plate Tomtec cell harvester. Five washes with 250 μL wash buffer (50 mM HEPES, 1 mM EDTA, pH 7.4) were performed at 4° C. to remove unbound radioactivity. The plates were dried then sealed from underneath using Packard plate sealers and MicroScint-O (50 μL) was added to each well. The plates were sealed (TopSeal A) and filter-bound radioactivity was measured with a scintillation counter (TopCount, Packard BioScience) using a 3-minute counting protocol.
(§2) Total specific binding (B0) was determined by subtracting the mean NSB from the mean maximum binding. NSB values were also subtracted from values from all other wells.

Assay [2] has as its target T2, recombinant human Dopamine Subtype D2s receptors (Homo sapiens, UniProt P14416).
T2 construct: purchased Perkin Elmer
In words: Dopamine D2 selectivity assay, [3H]-spiperone binding to membranes. As to conditions: read-out: D2 bind pIC50 (converted). The procedure:
Membranes containing recombinant human Dopamine Subtype D2s receptors were obtained from Perkin Elmer. These were diluted in Assay Buffer (50 mM HEPES, […], 120 mM NaCl, 0.1% gelatin, pH 7.4) to provide a final concentration of membranes that gave a clear window between maximum and minimum specific binding.
Assays were performed in U-bottomed 96-well polypropylene plates. 30 μL [^3H]-spiperone (0.16 nM final concentration) and 30 μL of test compound (10× final concentration) were added to each test well. For each assay plate 8 replicates were obtained for [^3H]-spiperone binding in the presence of 30 μL vehicle (10% (v/v) DMSO in Assay Buffer; defining maximum binding) or 30 μL Haloperidol (10 μM final concentration; defining non-specific binding (NSB)). Membranes were then added to achieve a final volume of 300 μL. The plates were incubated for 2 hours at room temperature and then filtered onto PEI coated GF/B filter plates, pre-soaked for 1 hour in Assay Buffer, using a 96-well plate Tomtec cell harvester. Five washes with 250 μL wash buffer (50 mM HEPES, 1 mM EDTA, 120 mM NaCl, pH 7.4) were performed at 4° C. to remove unbound radioactivity. The plates were dried then sealed from underneath using Packard plate sealers and MicroScint-O (50 μL) was added to each well. The plates were sealed (TopSeal A) and filter-bound radioactivity was measured with a scintillation counter (TopCount, Packard BioScience) using a 3-minute counting protocol.
as §2

In assay [3] the target is T3, recombinant human adrenergic beta 1 receptors (Homo sapiens, UniProt P08588).
T3 construct: purchased Euroscreen
In words: Adrenergic β1 selectivity assay, [125I]-Iodocyanopindolol binding to membranes. As to conditions: inhibition of [125I]-Iodocyanopindolol binding (0.036 nM); read-out: β1 bind pIC50 (converted). The procedure: Membranes containing recombinant human adrenergic beta 1 receptors were obtained from Euroscreen. These were diluted in Assay Buffer (50 mM HEPES, 1 mM EDTA, 120 mM NaCl, 0.1% gelatin, pH 7.4) to provide a final concentration of membranes that gave a clear window between maximum and minimum specific binding.
as §1, with “[^125I]-Iodocyanopindolol (0.036” for “[^3H]-prazosin (0.3”, “[^125I]-Iodocyanopindolol” for “[^3H]-prazosin”, “Propranolol” for “BMY7378”, “EDTA, 120 mM NaCl,” for “EDTA,”
as §2

Assay [4] concerns the target T4, β2 receptor (Homo sapiens, UniProt P07550).
T4 construct: endogenous in cells; host or cells: H292 cells
In words: Alternative adrenergic β2 mediated cAMP production in H292 cells (60 minutes with test compound). In kind it is cell-based. Conditions: for EC50: cAMP, 60 minutes incubation with compound, 300 μM rolipram, read-out: β2 pEC50 (converted); for β2 Int Act: fraction relative to the maximum activity determined for formoterol, 60 minutes incubation. The protocol: Alternative Adrenergic (β2 Mediated cAMP Production
H292 cells were grown in 225 cm2 flasks incubator at 37° C., 5% CO2 in RPMI medium containing, 10% (v/v) FBS (foetal bovine serum) and 2 mM L-glutamine.
Adherent H292 cells were removed from tissue culture flasks by treatment with Accutase™ cell detachment solution for 15 minutes. Flasks were incubated for 15 minutes in a humidified incubator at 37° C., 5% CO2. Detached cells were re-suspended in RPMI media (containing 10% (v/v) FBS and 2 mM L-glutamine) at 0.05×10^6 cells per mL. 5000 cells in 100 μL were added to each well of a tissue-culture-treated 96-well plate and the cells incubated overnight in a humidified incubator at 37° C., 5% CO2. The culture media was removed and cells were washed twice with 100 μL assay buffer and replaced with 50 μL assay buffer (HBSS solution containing 10 mM HEPES pH7.4 and 5 mM glucose). Cells were rested at room temperature for 20 minutes after which time 25 μL of rolipram (1.2 mM made up in assay buffer containing 2.4% (v/v) dimethylsulphoxide) was added. Cells were incubated with rolipram for 10 minutes after which time test compounds were added and the cells were incubated for 60 minutes at room temperature. The final rolipram concentration in the assay was 300 μM and final vehicle concentration was 1.6% (v/v) dimethylsulphoxide. The reaction was stopped by removing supernatants, washing once with 100 μL assay buffer and replacing with 50 μL lysis buffer. The cell monolayer was frozen at −80° C. for 30 minutes (or overnight).
The concentration of cAMP (cyclic adenosine monophosphate) in the cell lysate was determined using AlphaScreen™ methodology. The frozen cell plate was thawed for 20 minutes on a plate shaker then 10 μL of the cell lysate was transferred to a 96-well white plate. 40 μL of mixed AlphaScreen™ detection beads pre-incubated with biotinylated cAMP, was added to each well and the plate incubated at room temperature for 10 hours in the dark. The AlphaScreen™ signal was measured using an EnVision spectrophotometer (Perkin-Elmer Inc.) with the recommended manufacturer's settings. cAMP concentrations were determined by reference to a calibration curve determined in the same experiment using standard cAMP concentrations. Concentration response curves for agonists were constructed and data was fitted to a four parameter logistic equation to determine both the pEC50 and Intrinsic Activity. […]

T4 sequence (P07550 whole entry): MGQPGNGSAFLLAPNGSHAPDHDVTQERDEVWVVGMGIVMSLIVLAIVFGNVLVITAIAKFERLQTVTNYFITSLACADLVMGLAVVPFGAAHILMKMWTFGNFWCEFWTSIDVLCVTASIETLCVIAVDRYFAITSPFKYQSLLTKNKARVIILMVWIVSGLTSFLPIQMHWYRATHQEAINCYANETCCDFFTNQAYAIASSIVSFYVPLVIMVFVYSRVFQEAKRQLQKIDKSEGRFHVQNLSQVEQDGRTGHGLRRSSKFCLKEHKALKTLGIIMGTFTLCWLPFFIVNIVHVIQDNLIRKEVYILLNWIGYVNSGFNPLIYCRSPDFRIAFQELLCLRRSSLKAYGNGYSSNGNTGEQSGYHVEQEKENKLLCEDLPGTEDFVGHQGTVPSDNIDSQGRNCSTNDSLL
T2 sequence (P14416 1-414 isoform P14416-2): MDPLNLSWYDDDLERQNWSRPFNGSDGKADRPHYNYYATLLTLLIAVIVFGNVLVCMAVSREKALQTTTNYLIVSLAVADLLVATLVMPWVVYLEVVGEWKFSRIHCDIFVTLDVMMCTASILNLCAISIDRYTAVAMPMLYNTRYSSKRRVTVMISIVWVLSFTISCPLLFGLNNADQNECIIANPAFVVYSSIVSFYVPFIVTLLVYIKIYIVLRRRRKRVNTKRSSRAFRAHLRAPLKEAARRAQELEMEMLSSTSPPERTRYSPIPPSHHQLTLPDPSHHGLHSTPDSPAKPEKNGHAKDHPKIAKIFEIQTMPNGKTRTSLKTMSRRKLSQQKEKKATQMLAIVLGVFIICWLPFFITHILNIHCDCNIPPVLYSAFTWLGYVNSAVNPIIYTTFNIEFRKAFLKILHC
T3 sequence (P08588 whole entry): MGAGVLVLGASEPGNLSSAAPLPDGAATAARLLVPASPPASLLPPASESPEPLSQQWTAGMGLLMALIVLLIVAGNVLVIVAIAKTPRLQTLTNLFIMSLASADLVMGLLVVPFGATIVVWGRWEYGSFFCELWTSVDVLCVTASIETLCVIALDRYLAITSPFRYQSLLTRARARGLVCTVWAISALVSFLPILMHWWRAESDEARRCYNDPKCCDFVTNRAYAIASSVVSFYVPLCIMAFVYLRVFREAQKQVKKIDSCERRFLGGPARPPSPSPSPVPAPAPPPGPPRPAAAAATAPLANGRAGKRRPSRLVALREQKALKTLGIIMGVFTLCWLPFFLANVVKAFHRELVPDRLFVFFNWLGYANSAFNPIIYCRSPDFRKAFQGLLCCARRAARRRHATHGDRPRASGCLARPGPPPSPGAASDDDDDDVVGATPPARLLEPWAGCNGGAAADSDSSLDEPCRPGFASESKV

Take `CCCCN(CCNC[C@H](O)c1ccc(O)c2[nH]c(=O)sc12)C(=O)CCOCCc1ccccc1.Cl` [Example 2, N-Butyl-N-(2-{[(2R)-2-hydroxy-2-(4-hydroxy-2-oxo-2,3-dihydro-1,3-benzothiazol-7-yl)ethyl]amino}ethyl)-3-(2-phenylethoxy)propanamide Hydrochloride]: the figures for the IC50 in assay [1], in assay [2] and in assay [3] were 2510 nM, greater than 10000 nM and 6.31 nM, respectively. Also, in assay [4], the EC50 was 1 nM. The “β2 Int Act” value in assay [4] amounted to 0.9.

Regarding `CCN(CC)CCN(CCNC[C@H](O)c1ccc(O)c2[nH]c(=O)sc12)C(=O)CCOCCc1cccc2ccccc12` [Example 6, N-[2-(Diethylamino)ethyl]-N-(2-{[(2R)-2-hydroxy-2-(4-hydroxy-2-oxo-2,3-dihydro-1,3-benzothiazol-7-yl)ethyl]amino}ethyl)-3-[2-(1-naphthyl)ethoxy]propanamide], the IC50 in assay [1] was 2510 nM; in assay [2] it was 2510 nM; in assay [3], 631 nM. In assay [4], the EC50 is 2 nM. Moreover, in assay [4], the “β2 Int Act” value was found to be 0.9.
